Measurements taken from patent US20260048036A1, “CRYSTALLINE FORMS OF A GLUCOSYLCERAMIDE SYNTHASE INHIBITOR AND USES THEREOF” (ACELINK THERAPEUTICS, INC., priority 2022, published 2026).
pIC50: −log10 of the molar value. Values after ≈ are worked out from the molar mass of the structure shown. Values joined by “and” are separate entries in the source; they are usually repeats but may differ in a detail not shown here. Equal entries are not always repeated. Where two headings read alike, the source gives them in different places.

Tests used:
physchem = details: thermodynamic from solid
[1] = Approximate solubility at 25° C. by visual observation; format: physicochemical; details: thermodynamic from solid
Method: Free form Crystalline Form A of Compound 1 was used as the starting material for salt screening and selection study. […] Max. volume of each solvent added was 1 mL.

[2] = Competitive equilibration experiment (Form A + D + E slurry); format: physicochemical; details: ethanol, acetone, acetonitrile at 5° C., 25° C. and 50° C., 3 days, XRPD
Method: Competitive slurry was conducted to determine thermodynamic relationships of Crystalline Form A, Crystalline Form D and Crystalline Form E of Compound 1. […] The mixtures were stirred at 5° C., 25° C. or 50° C. for 3 days. Obtained solid part (wet cake) was investigated by XRPD.

[3] = Solid state stability, 1 week (HPLC purity, color, XRPD); details: for Bulk (XRPD) / Purity, Bulk (HPLC): Solid state, 1 week; for Purity, Bulk (HPLC): initial purity 99.8%
[4] = Hygroscopicity by DVS at 25° C.; format: physicochemical
[5] = molecular target: T1, Glucosylceramide synthase (GCS) (Canis lupus familiaris, UniProt A0A8I3MXG6); assay: GCS enzymatic assay with MDCK cell lysate; format: biochemical, canine
T1 construct: The MDCK, K-562, and L6 cell lines all endogenously express GCS enzyme; host or cells: MDCK (canine kidney) cell lysate
T1 sequence (A0A8I3MXG6 1-394): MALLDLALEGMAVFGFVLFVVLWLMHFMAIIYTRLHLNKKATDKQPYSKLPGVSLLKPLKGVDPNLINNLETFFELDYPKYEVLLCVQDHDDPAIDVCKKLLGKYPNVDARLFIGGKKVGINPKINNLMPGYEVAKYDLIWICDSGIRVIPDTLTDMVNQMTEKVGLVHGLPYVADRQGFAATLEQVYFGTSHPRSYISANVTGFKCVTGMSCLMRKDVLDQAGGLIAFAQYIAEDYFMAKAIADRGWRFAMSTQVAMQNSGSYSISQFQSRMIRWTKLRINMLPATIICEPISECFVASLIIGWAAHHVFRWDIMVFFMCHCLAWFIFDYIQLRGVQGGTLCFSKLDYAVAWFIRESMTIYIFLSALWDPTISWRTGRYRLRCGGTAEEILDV
Description: The reaction product, C6-NBD-glucosylceramide, could then be detected and quantified by LC-MS/MS. The inventors used this method to test and validate the effect of various GCS inhibitors on GCS enzyme activity from different species.
The GCS enzyme activity was detected by using the fluorescent substrate, C6-NBD-ceramide, and monitoring the formation of the fluorescent reaction product, C6-NBD-glucosylceramide. First, the inventors used cell lysate derived from a canine kidney cell line (MDCK, ATCC Cat #CCL-34™) as the source of GCS and tested the inhibitory activity of several control and test compounds.
GCS activity was evaluated using a GCS enzyme assay derived from MDCK or L6 cell lysates.
MDCK or L6 cell lysates were prepared using M-PER in the presence of a protease inhibitor cocktail. Each 100 mm dish (100% confluent) was lysed with 250 μl of M-PER containing protease inhibitors. Protein concentration was determined using Pierce BCA protein assay kit.
The final concentration of DMSO was 0.1% in both compound treated and DMSO only treated samples. Each individual reaction was terminated with 11 volumes of methanol:acetonitrile (6:5; containing 200 ng/ml Tolbutamide as internal control). After sufficient mixing, reactions were centrifuged at 2000 rpm for 10 mins, supernatant was injected into the LC-MS/MS for analysis.
The quantitative analysis of C6-NBD-glucosylceramide was performed on a Shimadzu ultra-fast liquid chromatography coupled with API 4000 mass spectrometer. Analyst 1.5 software packages were used to control the LC-MS/MS system, as well as for data acquisition and processing.
The C6-NBD-glucosylceramide reading was normalized first by dividing the peak area of C6-NBD-glucosylceramide with the peak area of the internal standard, and then the amount was calculated according to the standard curve generated in the same assay run. For the cell based assay results, the amount of C6-NBD-glucosylceramide was also normalized by the protein concentration of the cell samples.
IC50 values were generated from sigmoidal dose-response (variable slope) curves with GraphPad Prism software (GraphPad Software, Inc., San Diego, CA) using the percent inhibition of C6-NBD-glucosylceramide accumulation relative to DMSO control.

[6] = 50 mM acetate buffer, pH 4.5, 37 °C, pH 4.5, aqueous buffer
[7] = 50 mM phosphate buffer, pH 6.8, 37 °C, pH 6.8, aqueous buffer
[8] = 0.1 μM, 60 μg MDCK lysate/reaction, N = 1, N = 2

O=C(N[C@H](CN1CCCC1)[C@H](O)c1ccc(OC2CC2)c(Cl)c1)/C(=N/O)c1ccc2cc(Cl)ccc2c1 [Crystalline Form A of Compound 1]
solubility at 2 h (physchem; [6]): 230 µg/mL (≈ 424 µM) | solubility at 24 h (physchem; [6]): 210 µg/mL (≈ 387 µM) | solubility at 2 h (physchem; [7]): 10 µg/mL (≈ 18.4 µM) | solubility at 24 h (physchem; [7]): 5 µg/mL (≈ 9.22 µM) | solubility at 24 h (physchem; 0.1N HCl, pH 1.2, 37 °C, pH 1.2, simulated gastric fluid): 970 µg/mL (≈ 1790 µM) | solubility at 2 h (physchem; FaSSIF-V1, 37 °C, pH 6.5, fassif): 30 µg/mL (≈ 55.3 µM) | solubility at 2 h (physchem; FeSSIF-V1, 37 °C, pH 5, fessif): 1970 µg/mL (≈ 3630 µM) | solubility at 24 h (physchem; FeSSIF-V1, 37 °C, pH 5, fessif): > 2000 µg/mL | solubility at 2 h (physchem; SGF, 37 °C, pH 2, simulated gastric fluid): 1160 µg/mL (≈ 2140 µM) | solubility ([1]; organic solvent or mixture, Acetone): 16700 to 25000 µg/mL (≈ 30800 to 46100 µM) | solubility ([1]; organic solvent or mixture, Acetonitrile): < 5000 µg/mL | solubility ([1]; organic solvent or mixture, Ethanol): 5000 to 5500 µg/mL (≈ 9220 to 10100 µM) | solubility ([1]; organic solvent or mixture, Ethyl acetate): < 5000 µg/mL | solubility ([1]; Water): < 5000 µg/mL | thermodynamic stability in competitive slurry [2]: the most stable form | chemical and physical stability ([3]; 25° C./92% RH open container, 40° C./75% RH open container, 60° C. tight container, one week): chemically and physically stable | Bulk (XRPD) ([3]; 25° C./92% RH, open container): No form change | Purity, Bulk (HPLC) ([3]; 25° C./92% RH, open container): 99.8% | Bulk (XRPD) ([3]; 40° C./75% RH, open container): No form change | Purity, Bulk (HPLC) ([3]; 40° C./75% RH, open container): 99.8% | Bulk (XRPD) ([3]; 60° C., tight container): No form change | Purity, Bulk (HPLC) ([3]; 60° C., tight container): 99.8% | XRPD after DVS test [4]: No form change | hygroscopicity (DVS) [4]: slightly hygroscopic | Desorp. (DVS) ([4]; 0% RH): 0.02% | Sorp. (water uptake by DVS) ([4]; 0% RH): 0.02% | Desorp. (DVS) ([4]; 10% RH): 0.04% | Sorp. (water uptake by DVS) ([4]; 10% RH): 0.03% | Desorp. (DVS) ([4]; 20% RH): 0.05% | Sorp. (water uptake by DVS) ([4]; 20% RH): 0.04% | Desorp. (DVS) ([4]; 30% RH): 0.06% | Sorp. (water uptake by DVS) ([4]; 30% RH): 0.05% | Desorp. (DVS) ([4]; 40% RH): 0.09% | Sorp. (water uptake by DVS) ([4]; 40% RH): 0.06% | Sorp. (water uptake by DVS) ([4]; 50% RH): 0.09% | Sorp. (water uptake by DVS) ([4]; 60% RH): 0.12% | Sorp. (water uptake by DVS) ([4]; 70% RH): 0.14% | Sorp. (water uptake by DVS) ([4]; 80% RH): 0.22% | Sorp. (water uptake by DVS) ([4]; 90% RH): 0.39% | water uptake increased from 40% RH to 90% RH ([4]; DVS): about 0.33% | XRPD after DVS test ([4]; listed as Free form Crystalline Form A of Compound 1): No form change | XRPD after DVS test ([4]; listed as free form Crystalline Form A of Compound 1): no form change | C6-NBD-Ceramide (Normalized to internal control) [5, 8]: 5.04 and 4.88 | C6-NBD-Glucosylceramide Concentration [5, 8]: 33.1 nM and 32.5 nM | Inhibition [5, 8]: 96.72% | inhibition at 0.1 µM [5, 8]: 96.7% | pIC50 ([5]; MDCK cell lysate as source of GCS, C6-NBD-glucosylceramide by LC-MS/MS): 8.12
